Laboratory results: US10533034B2, “Human iNKT cell activation using glycolipids” (ACADEMIA SINICA, priority 2014, dated 2020)

What was measured:
Jα18 KO mice = experiment: Murine serum cytokine/chemokine secretion after i.v. glycolipid, Jα18 knockout mice; format: in vivo; settings: 1 μg/mouse; sera 2 and 18 hr
Procedure: B6 wild type and Jα18 knockout mice were i.v. injected with the indicated glycolipids (1 μg/mouse) or vehicle. Sera collected at 2 h and 18 h post-injection were analyzed for cytokines like IL-2 (7A), IL-6 (7B), GM-CSF (7C) and TNFα (7D) as well as chemokines such as IP-10 (7E), MIG (7F), KC (7G) and MCP-1 (7H). Only MIG peaked at 18 hr post-injection, while the others peaked at 2 hr post-injection.
All the glycolipids were dissolved in 100% DMSO at a concentration of 1-2 mg/ml. For in vivo experiments, all compounds were diluted to 10 μg/ml in saline just before injection of 100 μl diluted glycolipid or 100 μl 1% DMSO into mice. Pathogen-free C57BL/6 female mice aged 6-12 weeks were obtained from the National Laboratory Animal Center (Taipei, Taiwan). Jα18 knockout (KO) B6 mice were the gifts from Dr. Masaru Taniguchi (RIKEN Research Center for Allergy and Immunology, Yokohama, Japan). All the mice were maintained in pathogen free vivarium of Institute of Cellular and Organismic Biology, Academia Sinica (Taipei, Taiwan).
B6 WT or Jα18 KO mice were intravenously injected with vehicle or glycolipids at 0.1 or 1 μg/mouse. Serum was collected at 2 and 18 h after injection for measurement of cytokines/chemokines by Beadlyte® Mouse Cytokine kit (Millipore, N.Y.) and read by a Luminex® 200™ system (Luminex, Austin, Tex.).

[1] = tested on: B6 Jα18 KO mice splenocytes; experiment: FACS analyses of Jα18 KO mouse immune cells after glycolipid stimulation; format: in vivo; settings: 1 μg/mouse i.v.; 3 days
Procedure: B6 Jα18 KO mice treated with the indicated glycolipid (1 μg/mouse) or vehicle (% DMSO in PBS) were sacrificed at 72 hr post-injection and their splenocytes were subjected to FACS analysis. (9A) The total splenocytes, (9B) total CD11Chi cells, (9C) CD11Chi/CD80+ cells, (9D) CD11Chi/CD86+ cells, (9E) CD4^+ T cells and (9F) CD8^+ T cells (student t test: *, p<0.05, as compared to D).
B6 WT or Jα18 KO mice treated with specific glycolipid (1 μg/mouse) or vehicle (1% DMSO in PBS) were sacrificed at 72 hr post-injection and their spleens were harvested. After pressing spleens through 70 um strainer and lysis of erythrocytes, the nucleated cells were resuspended in PBS buffer containing azide (0.05%) and stained with antibodies recognizing the indicated cell surface antigens for 30 min at 4° C. After washing, the splenocytes were subjected to FACS analysis. The antibodies against CD3, CD4, CD8α, CD11c, CD80, and CD86 were obtained from BD Bioscience-Pharmingen.
Unexpectedly, we also observed that 7DW8-5-Glc induced chemokines in Jα18 KO mice (FIG. 7).

mCD1d dimer = experiment: Binding strength of the binary complex between mCD1d and glycolipid (L363 antibody ELISA); set-up: species or system mouse
Procedure: (10A, 10B) Different concentrations of mCD1d-glycolipid complexes coated on the ELISA plate were incubated with the saturated amount of L363 antibody conjugated with biotin, followed by streptavidin-HRP detection and ELISA measurement. (10A) The relationship between OD values reflecting L363 antibody binding and the concentration of CD1ddi-glycolipids complex was plotted. (10B) The dissociation constant (KD) between L363 antibody and the indicated mCD1d-glycolipid complex was calculated as described in Materials and methods. (10C) The relationship between OD values reflecting L363 antibody binding and the concentration of glycolipids was plotted. (10D) KD values of the binary complex were calculated from the linear regression of the Scatchard transformation of the L363 antibody binding curve (10C).
Different concentrations of mCD1d^di-glycolipid complexes coated on the ELISA plate were incubated with the saturated amounts of L363 antibody (BioLegend) conjugated with biotin, followed by streptavidin-HRP detection and ELISA measurement. The KD between L363 antibody and the indicated mCD1d^di-glycolipid complex was calculated from the linear regression of the Scatchard transformation of the L363 antibody binding curve using GraphPad Prism software. […] Next, the KD of the binary complex was determined as follows. […]

C1-pulsed splenocytes = experiment: CD1d dimer staining of in vivo C1-pulsed splenocytes; format: binding, B6 WT mice; settings: CD3+/CD45R− gated; 3 days after C1 1 μg/mouse
Procedure: B6 WT splenocytes (n=3) were harvested 3 days after injection with C1 (1 μg/mouse) and stained with CD3, CD45R and the indicated dimer complex conjugated with RPE for 1 hr at 4 degrees Celsius. (11A) CD3+/CD45R− cells were gated to analyze the dimer staining. (11B) unloaded dimer was used as the control. (11C) mCD1d dimer loaded with 7DW8-5-Glc stained 17.1±0.8% of C1-pulsed splenocytes. (11D) mCD1d dimer loaded with 7DW8-5 stained 36.2±5.0% of C1-pulsed splenocytes.

With `CCCCCCCCCCCCCC[C@@H](O)[C@@H](O)[C@H](CO[C@H]1O[C@H](CO)[C@H](O)[C@H](O)[C@H]1O)NC(=O)CCCCCCCCCCc1ccc(F)cc1` [Compound 7DW8-5, reference compound] as the compound, how does the “induction of cytokines in Jα18 KO mice” value (Jα18 KO mice) read?
The value was “no induction”.

And the “total splenocytes, CD4+ T and CD8+ T cells in Jα18 KO mice” value [1]?
Its value is “No significant differences”.

And the “binding avidity to mCD1d dimer, fold greater than αGalCer” value (mCD1d dimer)?
The value was ~20 fold.

And the “percentage of C1-pulsed splenocytes stained by mCD1d dimer loaded with glycolipid” value (C1-pulsed splenocytes)?
The value was 36.2±5.0%.

For `CC[C@@H](O)[C@@H](O)[C@H](CO[C@H]1OC(CO)[C@@H](O)C(O)C1O)NC(=O)Cc1ccc(F)cc1` (stereo partly shown) [Compound 7DW8-5-Glc], which “induction of cytokines in Jα18 KO mice” value (Jα18 KO mice) is on record?
The value was “no induction”.

What about the “secretion of chemokines KC, MCP-1, IP-10 and MIG in Jα18 KO mice” value (Jα18 KO mice) of the same compound?
Its value is “triggered the secretion”.

What about the “expansion/activation of CD11chi monocyte-derived DCs in Jα18 KO mice” value [1] of the same compound?
Its value is “significantly expanded and activated”.

What about the “total splenocytes, CD4+ T and CD8+ T cells in Jα18 KO mice” value [1] of the same compound?
Its value is “No significant differences”.

What about the “binding avidity to mCD1d dimer, fold greater than αGalCer” value (mCD1d dimer) of the same compound?
The value was ~20 fold.

And the “percentage of C1-pulsed splenocytes stained by mCD1d dimer loaded with glycolipid” value (C1-pulsed splenocytes)?
Its value is 17.1±0.8%.
